Experimental findings from patent US6596257B2, “Detection and visualization of neoplastic tissues and other tissues” (Prolume, Ltd., priority 1996, dated 2003) are described below.

Data set [1] has as its system mice. Nature of the data set: Repeated administration toxicology: gross signs of toxicity in behavior. The settings on record: 1 mg/kg i.p., daily administration for three days, n=6. The data set is classed as in vivo, mouse. The source says:
[…] Mice are examined over the course of the study for any gross signs of toxicity as evidenced in their behavior. At the end of the one-week period, blood which is collected by cardiac puncture immediately prior to sacrifice. Animals are sacrificed and ten different tissue samples are removed post mortem from each animal. Isolated tissues are fixed, stained, blocked and sectioned. The pathology of the tissue samples will be analyzed and the toxicology data are compiled.

Data set [2] is classed as physicochemical. The text has this:
Coelenterazine is not terribly soluble in non-irritant vehicles. Coelenterazine is soluble to at least to a concentration of 200 micrograms/mL in a solution of 2% (w/v) PEG 400 containing about 0.8% (w/v) NaCl. Although this solution is slightly hypertonic, it is not an irritant for vehicle purposes.

For the substance coelenterazine, the gross behavior changes result in data set [1] is listed as “no gross behavior changes”. In data set [2], the “solubility (soluble to at least a concentration of)” value is ≥ 200 micrograms/mL.
